Among the data in patent US20200031820A1, “3-CARBOXYLIC ACID PYRROLES AS NRF2 REGULATORS” (GLSXOSMITHKLINE INTELLECTUAL PROPERTY DEVELOPMENT LIMITED, priority 2016, published 2020) are EC50 values, retold here.

This assay has as its target T1, Keap1 (321-609) Kelch domain / TAMRA-labeled 16mer NRF2 peptide (ETGE motif) (Homo sapiens, UniProt Q14145).
T1 construct: the Kelch domain (321-609) of Keap1 is used
Put plainly: NRF2-Keap1 FP Assay. The format is binding. The following applies: 20 nM Keap1 (321-609), 8 nM Tamra labeled peptide. The source says: One model for the NRF2-Keap1 interaction is through two binding sites in the Neh2 domain on NRF2. The two sites are referred to as the DLG binding motif (latch domain, uM affinity) and the ETGE binding motif (hinge domain, nM affinity). The Keap1 protein consists of an N-terminal region (NTR), a broad complex, tramtrack, and brick a'brac domain (BTB), an intervening region (IVR), a double glycine repeat domain (DGR or Kelch), and a C-terminal region. The DLG and ETGE motifs of NRF2's Neh2 domain bind to the Kelch domain of Keap1 at different affinities. In the Keap1 Kelch fluorescence polarization (FP) assay, a TAMRA-labeled 16mer peptide (AFFAQLQLDEETGEFL) containing the ETGE motif of NRF2 and the Kelch domain (321-609) of Keap1 is used. The assay determines if a compound interferes with the binding between Keap1 […] and the TAMRA-labeled peptide. Binding of TAMRA-labeled NRF2 peptide to Keap1 (321-609) results in a high FP signal. If a compound interferes with the binding between the peptide and the protein, it will cause the assay signal to decrease. Thus, assay signal is inversely proportional to binding inhibition.
100 nl of 100× compound dose response curves (serial 3-fold dilutions) in DMSO were stamped using an Echo liquid handling system (Labcyte) into 384-well low volume black assay plates (Greiner, #784076), with DMSO in columns 6 and 18. The top concentration of compound was located in columns 1 and 13. Keap1 (321-609) was diluted to 40 nM (2×) in 1× assay buffer (50 mM Tris, pH 8.0, 100 mM NaCl, 5 mM MgCl2, 1 mM DTT, 2 mM CHAPS, and 0.005% BSA) and 5 ul was added using a Multidrop Combi (Thermo Electron Corporation) equipped with a metal tip dispenser to all wells of the compound plate, except column 18. Column 18 received only 5 ul of assay buffer. Immediately, 5 uL of 16 nM (2×) of Tamra labeled peptide (AFFAQLQLDEETGEFL, 21st Century Biochemicals) was added to all wells of the plate. The plates were spun at 500 rpm for 1 min, incubated for 1 hr at room temperature, and read on an Analyst GT (Molecular Devices) equipped with excitation (530/25 nm) and emission (580/10 nm) filters designed for Tamra probes. A 561 nm dichroic mirror was also used in the Analyst. The final assay concentrations of Keap1 (321-609) and Tamra labeled peptide were 20 nM and 8 nM, respectively. Fluorescence measurements, represented as mP, were used in the transformation of the data. Compound activity was calculated based on percent inhibition, normalized against controls in the assay (Control 1 contains the Tamra peptide and Keap1 (321-609) together (0% response) and control 2 contains the Tamra peptide alone (100% response)). Data analysis was handled using the software package Abase XE (Surrey, United Kingdom. The % inhibition values were calculated by the equation:
100−(100*((compound response−average control 2)/(average control 1−average control2))). For calculation of pIC50s, Abase XE uses a four parameter equation.
IC50s<1 nM (+++++), IC50s 1 nM-10 nM (++++), IC50s 10-100 nM (+++), IC50s 100 nM-1 μM (++), IC50s 1-10 μM (+), IC50s >10 μM (−), or were not determined (ND).

By EC50 is commonly meant the concentration needed to bring the measured effect to its halfway point.

T1 sequence (Q14145 321-609): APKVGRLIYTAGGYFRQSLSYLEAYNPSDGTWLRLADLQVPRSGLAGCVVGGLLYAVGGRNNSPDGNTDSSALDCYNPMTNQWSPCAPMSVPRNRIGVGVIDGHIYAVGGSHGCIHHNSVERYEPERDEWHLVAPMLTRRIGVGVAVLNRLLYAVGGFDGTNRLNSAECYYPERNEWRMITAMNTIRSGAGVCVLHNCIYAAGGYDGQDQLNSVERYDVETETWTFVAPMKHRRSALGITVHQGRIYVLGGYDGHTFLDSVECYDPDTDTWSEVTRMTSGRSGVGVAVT

`C[C@H]1Cc2ccc(C(F)(F)F)cc2S(=O)(=O)N(C2CCc3c2cccc3-n2ccc(C(=O)O)c2C2CC2)C1` (mixture of isomers) [Example 12, 2-Cyclopropyl-1-(1-((S)-4-methyl-1,1-dioxido-8-(trifluoromethyl)-4,5-dihydrobenzo[f][1,2]thiazepin-2(3H)-yl)-2,3-dihydro-1H-inden-4-yl)-1H-pyrrole-3-carboxylic acid] gave an EC50 of 1000 to 10000 nM. For the compound `C[C@H]1Cc2ccc(C(F)(F)F)cc2S(=O)(=O)N(Cc2cccc(-n3ccc(C(=O)O)c3[C@@H]3C[C@H]3c3cn(C)nn3)c2)C1` (racemic) [Example 1, 1-(3-(((S)-4-Methyl-1,1-dioxido-8-(trifluoromethyl)-4,5-dihydrobenzo[f]-[1,2]thiazepin-2(3H)-yl)methyl)phenyl)-2-(trans-2-(1-methyl-1H-1,2,3-triazol-4-yl)cyclopropyl)-1H-pyrrole-3-carboxylic acid], the EC50 is 10 to 100 nM. For the compound `C[C@H]1Cc2cc(C(F)(F)F)ccc2S(=O)(=O)N(Cc2cccc(-n3ccc(C(=O)O)c3[C@@H]3C[C@H]3c3cn(C)nn3)c2)C1` (racemic) [Example 2, 1-(3-(((S)-4-methyl-1,1-dioxido-7-(trifluoromethyl)-4,5-dihydrobenzo[f][1,2]thiazepin-2(3H)-yl)methyl)phenyl)-2-(trans-2-(1-methyl-1H-1,2,3-triazol-4-yl)cyclopropyl)-1H-pyrrole-3-carboxylic acid], the EC50 fell in the range of 10 to 100 nM. With `Cc1c(CN2C[C@@H](C)Cc3ccc(C(F)(F)F)cc3S2(=O)=O)cccc1-n1ccc(C(=O)O)c1[C@@H]1C[C@H]1c1cn(C)nn1` (racemic) [Example 10, rac-2-(trans-2-(1-methyl-1H-1,2,3-triazol-4-yl)cyclopropyl)-1-(2-methyl-3-(((S)-4-methyl-1,1-dioxido-8-(trifluoromethyl)-4,5-dihydrobenzo[f][1,2]thiazepin-2(3H)-yl)methyl)phenyl)-1H-pyrrole-3-carboxylic acid], the EC50 lay in the range of 100 to 1000 nM.

In turn, `Cc1ccc(CN2C[C@@H](C)Cc3ccc(C(F)(F)F)cc3S2(=O)=O)cc1-n1ccc(C(=O)O)c1[C@@H]1C[C@H]1c1cn(C)nn1` (racemic) [Example 11, rac-2-(trans-2-(1-methyl-1H-1,2,3-triazol-4-yl)cyclopropyl)-1-(2-methyl-5-(((S)-4-methyl-1,1-dioxido-8-(trifluoromethyl)-4,5-dihydrobenzo[f][1,2]thiazepin-2(3H)-yl)methyl)phenyl)-1H-pyrrole-3-carboxylic acid] gave an EC50 of 100 to 1000 nM.

`C[C@H](Oc1cccc(-c2cccc(-n3ccc(C(=O)O)c3[C@@H]3C[C@H]3c3cn(C)nn3)c2)c1)C1CCCCC1` (racemic) [Example 13, 1-(3′-((S)-1-Cyclohexylethoxy)-[1,1′-biphenyl]-3-yl)-2-(trans-2-(1-methyl-1H-1,2,3-triazol-4-yl)cyclopropyl)-1H-pyrrole-3-carboxylic acid] yielded an EC50 of 10 to 100 nM. `CCC[C@@H]1CCCCN1C(=O)c1cccc(-c2cccc(-n3ccc(C(=O)O)c3[C@@H]3C[C@H]3c3cn(C)nn3)c2)c1` (racemic) [Example 14, 2-(trans-2-(1-methyl-1H-1,2,3-triazol-4-yl)cyclopropyl)-1-(3′-((R)-2-propylpiperidine-1-carbonyl)-[1,1′-biphenyl]-3-yl)-1H-pyrrole-3-carboxylic acid] came in with an EC50 of 10 to 100 nM. On to `CCC[C@@H]1CCCCN1C(=O)c1cccc(-c2cccc(-n3ccc(C(=O)O)c3[C@@H]3C[C@H]3c3cn(C)nn3)c2)c1F` (racemic) [Example 15, 1-(2′-fluoro-3′-((R)-2-propylpiperidine-1-carbonyl)-[1,1′-biphenyl]-3-yl)-2-(trans-2-(1-methyl-1H-1,2,3-triazol-4-yl)cyclopropyl)-1H-pyrrole-3-carboxylic acid], for which the EC50 lay within 10 to 100 nM. For `Cn1cc([C@@H]2C[C@H]2c2c(C(=O)O)ccn2-c2cccc(CN3Cc4cc(F)ccc4OC(C)(C)C3)c2)nn1` (racemic) [Example 19], the EC50 lay within 10 to 100 nM. In the case of `Cn1cc([C@@H]2C[C@H]2c2c(C(=O)O)ccn2-c2cccc(CN3Cc4cc(Br)ccc4OC(C)(C)C3)c2)nn1` (racemic) [Example 20], the 50% effective concentration (EC50) was in the range of 10 to 100 nM. On to `Cn1cc([C@@H]2C[C@H]2c2c(C(=O)O)ccn2-c2cccc(CN3Cc4ccccc4CC(C)(C)C3)c2)nn1` (racemic) [Example 21], for which the EC50 lay within 10 to 100 nM.

Take `CCCC[C@H]1Cc2ccccc2S(=O)(=O)N(Cc2cccc(-n3ccc(C(=O)O)c3[C@@H]3C[C@H]3c3cn(C)nn3)c2)C1` [Example 3, 1-(3-(((S)-4-butyl-1,1-dioxido-4,5-dihydrobenzo[f][1,2]thiazepin-2(3H)-yl)methyl)phenyl)-2-((1R,2R)-2-(1-methyl-1H-1,2,3-triazol-4-yl)cyclopropyl)-1H-pyrrole-3-carboxylic acid]: the EC50 lay within 10 to 100 nM.

`CCCC[C@H]1Cc2ccc(C(F)(F)F)cc2S(=O)(=O)N(Cc2cccc(-n3ccc(C(=O)O)c3[C@@H]3C[C@H]3c3cn(C)nn3)c2)C1` [Example 6, 1-(3-(((S)-4-butyl-1,1-dioxido-8-(trifluoromethyl)-4,5-dihydrobenzo[f][1,2]thiazepin-2(3H)-yl)methyl)phenyl)-2-((1R,2R)-2-(1-methyl-1H-1,2,3-triazol-4-yl)cyclopropyl)-1H-pyrrole-3-carboxylic acid] had an EC50 of 10 to 100 nM. The result for `CC[C@H]1Cc2cc(C(F)(F)F)ccc2S(=O)(=O)N(Cc2cccc(-n3ccc(C(=O)O)c3[C@@H]3C[C@H]3c3cn(C)nn3)c2)C1` [Example 7, 1-(3-(((S)-4-ethyl-1,1-dioxido-7-(trifluoromethyl)-4,5-dihydrobenzo[f][1,2]thiazepin-2(3H)-yl)methyl)phenyl)-2-((1R,2R)-2-(1-methyl-1H-1,2,3-triazol-4-yl)cyclopropyl)-1H-pyrrole-3-carboxylic acid] reads 10 to 100 nM; that for `C[C@H]1Cc2ccc(Br)cc2S(=O)(=O)N(Cc2cccc(-n3ccc(C(=O)O)c3[C@@H]3C[C@H]3c3cn(C)nn3)c2)C1` [Example 8, 1-(3-(((S)-8-bromo-4-methyl-1,1-dioxido-4,5-dihydrobenzo[f][1,2]thiazepin-2(3H)-yl)methyl)phenyl)-2-((1R,2R)-2-(1-methyl-1H-1,2,3-triazol-4-yl)cyclopropyl)-1H-pyrrole-3-carboxylic acid], 10 to 100 nM. The same measure for `CC[C@H]1Cc2ccc(Br)cc2S(=O)(=O)N(Cc2cccc(-n3ccc(C(=O)O)c3[C@@H]3C[C@H]3c3cn(C)nn3)c2)C1` [Example 9, 1-(3-(((S)-8-bromo-4-ethyl-1,1-dioxido-4,5-dihydrobenzo[f][1,2]thiazepin-2(3H)-yl)methyl)phenyl)-2-((1R,2R)-2-(1-methyl-1H-1,2,3-triazol-4-yl)cyclopropyl)-1H-pyrrole-3-carboxylic acid]: 10 to 100 nM; for `C[C@H](Oc1cccc(-c2cccc(-n3ccc(C(=O)O)c3[C@H]3C[C@@H]3c3cn(C)nn3)c2)c1)C1CCCCC1` [Example 17, 1-(3′-((S)-1-cyclohexylethoxy)-[1,1′-biphenyl]-3-yl)-2-((1S,2S)-2-(1-methyl-1H-1,2,3-triazol-4-yl)cyclopropyl)-1H-pyrrole-3-carboxylic acid]: 10 to 100 nM; for `CCC[C@@H]1CCCCN1C(=O)c1cccc(-c2cccc(-n3ccc(C(=O)O)c3[C@@H]3C[C@H]3c3cn(C)nn3)c2)c1Br` [Example 22]: 10 to 100 nM. With `CCC[C@@H]1CCCCN1C(=O)c1cc(F)cc(-c2cccc(-n3ccc(C(=O)O)c3[C@@H]3C[C@H]3c3cn(C)nn3)c2)c1` [Example 23], the EC50 is 10 to 100 nM. Compound `CCC[C@@H]1CCCCN1C(=O)c1cccc(-c2cccc(-n3ccc(C(=O)O)c3[C@@H]3C[C@H]3c3cn(C)nn3)c2)c1C(F)(F)F` [Example 24] yielded an EC50 of 100 to 1000 nM.
